Assays:
[1] = target: T1, Human adenosine A1 receptor (Homo sapiens, UniProt P30542); assay: Adenosine A1 receptor binding experiment (3H-CCPA displacement, CHOK1 membrane specimen); conditions: calculated from IC50 by Cheng-Prusoff's expression; 3H-CCPA binding, membranes of CHOK1 cells over-expressing human A1, 30° C., 120 minutes; read-out: inhibition constant (Ki value)
T1 construct: expressed in transfected cells; host or cells: CHOK1 cells (membrane specimen)
T1 sequence (P30542 1-326): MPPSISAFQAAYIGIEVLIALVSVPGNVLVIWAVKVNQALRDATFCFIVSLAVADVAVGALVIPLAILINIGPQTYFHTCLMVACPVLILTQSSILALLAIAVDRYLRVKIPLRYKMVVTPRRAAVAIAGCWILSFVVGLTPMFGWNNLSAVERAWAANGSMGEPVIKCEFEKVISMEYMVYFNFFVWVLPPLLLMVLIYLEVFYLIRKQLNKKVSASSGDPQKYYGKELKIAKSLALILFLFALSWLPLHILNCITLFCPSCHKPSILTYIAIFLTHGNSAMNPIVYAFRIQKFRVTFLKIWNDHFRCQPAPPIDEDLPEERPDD
Description: Human adenosine A1 receptor cDNA was subjected to an over-expression in CHOK1 cells and its membrane specimen was suspended in a 20 mM HEPES buffer (containing 10 mM MgCl2 and 100 mM NaCl; pH 7.4) to make the protein concentration of 66.7 μg/mL. To 0.45 mL of this membrane specimen suspension were added 0.025 mL of tritium-labeled 60 nM chlorocyclopentyl adenosine (^3H-CCPA, manufactured by NEN corporation) and 0.025 mL of a solution of the compound of the present invention. The mixture was allowed to stand at 30° C. for 120 minutes, subjected to a quick suction on a glass fiber filter (GF/B; manufactured by Whatman) and immediately washed with 5 mL of water-cooled 50 mM Tris-HCl buffer twice. After that, the glass fiber filter was transferred to a vial bottle, a scintillator was added, and the radioactivity on the filter was measured by a liquid scintillation counter. […]
At this point, total binding amount is a ^3H-CCPA binding radioactivity in the absence of the compound of the present invention, non-specific binding amount is a ^3H -CCPA binding radioactivity in the presence of 100 μM of RPIA ([R]-[1-methyl-2-phenylethyl]adenosine), and binding amount in the presence of the compound of the present invention is a ^3H-CCPA binding radioactivity in the presence of the compound of the present invention of various concentrations.

[2] = target: T2, Human adenosine A2B receptor (Homo sapiens, UniProt P29275); assay: Inhibition of NECA-stimulated cAMP production in A2B receptor expressed cells; type: cell-based; conditions: CHOK1 cells over-expressing human A2B; 30 nM NECA; in the presence of Ro-20-1724; cAMP enzyme immunoassay; read-out: 50% inhibitory concentration (IC50) for NECA-stimulated cAMP production
T2 construct: expressed in transfected cells; host or cells: CHOK1 cells
T2 sequence (P29275 1-332): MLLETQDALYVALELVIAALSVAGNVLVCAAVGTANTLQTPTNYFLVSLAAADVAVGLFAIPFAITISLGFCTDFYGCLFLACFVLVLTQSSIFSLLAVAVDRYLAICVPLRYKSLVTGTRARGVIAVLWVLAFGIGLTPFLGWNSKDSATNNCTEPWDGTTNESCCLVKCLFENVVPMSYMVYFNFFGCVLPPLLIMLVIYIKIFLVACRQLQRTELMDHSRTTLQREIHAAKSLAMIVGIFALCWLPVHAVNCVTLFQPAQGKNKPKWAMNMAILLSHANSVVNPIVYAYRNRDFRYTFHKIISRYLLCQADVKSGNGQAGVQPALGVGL
Description: Human adenosine A2B receptor was over-expressed in CHOK1 cells. The cells were uniformly placed on a 24-well plate at the rate of 1.5×10^5 cells/well, incubated for one night and then used for the experiments. The inhibition rate of the compound of the present invention for the amount of cAMP produced by stimulation of 30 nM of 5′-N-ethylcarboxyamideadenosine (NECA; manufactured by Sigma corporation) was evaluated as affinity of the compound of the present invention to the A2B receptor. Thus, after washing adherent cells with 2 mL/well of a Krebs-Ringer buffer (containing 0.1 % BSA; pH7.4) twice, a pre-incubation was carried out at 0.5 mL/well for 30 minutes. After that, […] of a mixed solution containing NECA and the compound of the present invention were added in the presence of Ro-20-1724 (manufactured by RBI corporation) which is a phosphodiesterase inhibitor. 15 minutes after pre-incubation, the reaction was stopped by adding 0.1N HCl to the reaction solution. Measurement of cAMP was carried out using a cAMP enzyme immunoassay kit manufactured by Amersham corporation. Calculation of the inhibition rate of the compound of the present invention to the NECA-stimulated cAMP production was carried out by the following expression. […]

## Cn1cc(-c2c(O)nc(N)nc2-c2ccco2)ccc1=O [the compound of the present invention, 5-[2-amino-4-(2-furyl)-6-hydroxypyrimidin-5-yl]-1-methylpyridin-2(1H)-one]
[1]
  Ki: 157 nM
[2]
  IC50: 72.7 nM
